# Assay results taken from ChEMBL document CHEMBL1147006, “Synthesis, characterization and antiamoebic activity of 1-(thiazolo[4,5-b]quinoxaline-2-yl)-3-phenyl-2-pyrazoline derivatives” (Bioorg Med Chem Lett, 2006).
# Test system: Entamoeba histolytica
# Experiment: Antiamoebic activity against Entamoeba histolytica HM-1:IMSS
# Type: functional, organism-based
row,Structure (SMILES),IC50 [µM]
1,NC(=S)N1CCC(c2ccccc2)=N1,17.2
2,c1ccc(C2=NN(c3nc4nc5ccccc5nc4s3)CC2)cc1,6.76
3,NC(=S)N1CCC(c2cccc(Br)c2)=N1,13.2
4,CC1CN(C(N)=S)N=C1c1ccccc1 (stereo unspecified),10.2
5,NC(=S)N1CCC(c2cccc(Cl)c2)=N1,8.7

# Molecules with a lower IC50, results first:
row,IC50 [µM],Structure (SMILES)
1,4.98,Brc1cccc(C2=NN(c3nc4nc5ccccc5nc4s3)CC2)c1
2,2.34,CC1CN(c2nc3nc4ccccc4nc3s2)N=C1c1ccccc1 (stereo unspecified)
3,1.69,Cc1ncc([N+](=O)[O-])n1CCO [METRONIDAZOLE]
4,1.45,CC1CN(c2nc3nc4ccccc4nc3s2)N=C1c1cccc(Br)c1 (stereo unspecified)
5,1.09,Clc1cccc(C2=NN(c3nc4nc5ccccc5nc4s3)CC2)c1
6,0.72,CC1CN(c2nc3nc4ccccc4nc3s2)N=C1c1cccc(Cl)c1 (stereo unspecified)
